# Where no end group is shown, it is not given here.
# Legend:
# Type in all cases: cell-based
# [1] = test system: Adult Dermal Human Fibroblasts; assay: Mitochondrial activity in aged fibroblasts (TMRE-Mitochondrial Membrane Potential Assay Kit); conditions: 250 μM, 7 days, TMRE stain; control = 1.00
# Method: Adult Dermal Human Fibroblasts (Lot 2485, Passage 5, Cell Applications) were expanded and seeded into a 12-well glass bottom plate at a density of 10,000 cells/well. Cells were grown in Eagle's Minimal Essential Medium (EMEM) supplemented with Fetal Bovine Serum (FBS) and Penicillin-Streptomycin. Cells attached overnight and then culture media was aspirated and replaced with media containing either 100 uM or 250 uM of Peptide I, Peptide II, or Peptide III. Cells were cultured for 7 days with treatment with renewal of treatment medium every other day with the exception of weekends. On day 7, cells were stained with tetramethylrhodamine ethyl ester (TMRE) and imaged for mitochondrial activity following the protocol in the TMRE-Mitochondrial Membrane Potential Assay Kit (ab113852, Abcam). The active mitochondria (mean intensity normalized to control) were determined and are shown below, in Table 5.
# Interleukin 6 (IL-6) = assay: Interleukin-6 released from Adult Dermal Human Fibroblasts (LEGENDplex Human Inflammation Panel); conditions: 4 days treatment, concentration not given (100 uM or 250 uM)
# Method: (§1) Adult Dermal Human Fibroblasts (Lot 2485, Passage 5, Cell Applications) were expanded and seeded into a 48-well plate at a density of 5,000 cells/well. Cells were grown in Eagle's Minimal Essential Medium (EMEM) supplemented with Fetal Bovine Serum (FBS) and Penicillin-Streptomycin. Cells attached overnight and then culture media was aspirated and replaced with media containing either 100 uM or 250 uM of Peptide I, Peptide II, or Peptide III. Cells were cultured for […] with treatment with renewal of treatment medium every other day with the exception of weekends. Media was collected at the end of the culture period. Inflammatory cytokines were quantified by running a LEGENDplex Human Inflammation Panel 1 13-plex (Catalogue #740809, Biolegend. Protein in the media supernatant was also quantified using the Pierce BCA Protein Assay Kit (Catalogue #23225, ThermoFisher). Microsoft Excel and GraphPad Prism were used for additional analysis and data presentation. The amounts of Interleukin 6 (IL-6) and Interleukin 8 (IL-8) released from the Adult Dermal Human Fibroblasts are shown below in Table 1 and graphically depicted in FIG. 1(a) (for IL-6) and FIG. 1(b) (for IL-8).
# [2] = test system: transforming growth factor alpha (TGFa); assay: Transforming growth factor alpha generated by reconstructed human epidermis (LEGENDplex Human Growth Factor Panel); conditions: 250 μM, 7 days, control = 1.00
# Method: (§2) Reconstructed human epidermis (RHE) (EPISKIN/S/13, Episkin) was received and samples were prepared for use. Upon arrival, inserts containing the RHE were removed from the multi-plate and placed in a 12-well plate containing maintenance medium. Tissue serving as untreated control were placed in regular maintenance medium; treatment groups were placed in maintenance medium containing 250 uM of Peptide I, II, or III alone or in combination. Medium was aspirated and replaced every other day with the exception of weekends. RHE was cultured at air-liquid interface at 37C, 5% CO2 and saturated humidity for 7 days. Media was collected at the end of the culture period. Growth factors were quantified by running a LEGENDplex Human Growth Factor Panel (Catalogue #740809, Biolegend. Protein in the media supernatant was also quantified using the Pierce BCA Protein Assay Kit (Catalogue #741061, ThermoFisher). Microsoft Excel and GraphPad Prism were used for additional analysis and data presentation. The amounts of epidermal growth factor (EGF), hepatocyte growth factor (HGF), and transforming growth factor alpha (TGFa) generated by the RHE are shown below in Table 2 and graphically shown in FIG. 2(a) (for EGF) and FIG. 2(b) (for HGF), and FIG. 2(c) (for TGFa).
# [3] = test system: hepatocyte growth factor (HGF); assay: Hepatocyte growth factor generated by reconstructed human epidermis (LEGENDplex Human Growth Factor Panel); conditions: 250 μM, 7 days, control = 1.00
# Method: as §2
# Keratinocyte stem cells = assay: Holoclone count of keratinocyte stem cells; conditions: 96 hours, control 24.80 ± 6.14
# Method: Keratinocyte stem cells (Lot KSC870, Passage 2, Bioalternatives) were seeded in 96-well plates and cultured in Keratinocyte-SFM supplemented with Epidermal Growth Factor and Pituitary Extract. After 4 hours, media was replaced with that containing Peptide II or Peptide III, alone or in combination. Cells were incubated for 96 hours with treatment renewal after 24 hours. After 96 hours, the medium was removed, and cells were fixed with methanol at −20C. Cells were then stained for 10 minutes with a Papanicolaou solution and imaged. The number of holoclone clones were counted. Data was analyzed and plotted using GraphPad Prism. The holocolone count relative to control (normalized) is shown below in Table 3 for different concentrations of peptide II, Peptide III, and combinations of Peptide II and Peptide III.
# [4] = test system: Adult Dermal Human Fibroblasts; assay: Autophagic vacuoles in aged fibroblasts (Autophagy Assay Kit); set-up: key: “↑” indicates and increase; “↓” indicates a decrease; “↔” indicates no change; conditions: 7 days
# Method: Adult Dermal Human Fibroblasts (Lot 2485, Passage 5, Cell Applications) were expanded and seeded into a 12-well glass bottom plate at a density of 10,000 cells/well. Cells were grown in Eagle's Minimal Essential Medium (EMEM) supplemented with Fetal Bovine Serum (FBS) and Penicillin-Streptomycin. Cells attached overnight and then culture media was aspirated and replaced with media containing either 100 uM or 250 uM of Peptide I, Peptide II, or Peptide III. Cells were cultured for 7 days with treatment with renewal of treatment medium every other day with the exception of weekends. On day 7, cells were stained and imaged for presence of autophagic vacuoles following the protocol in the Autophagy Assay Kit (ab139484, Abcam). The images were compared to determine whether the number of autophagic vacuoles increased, decreased, or remained unchanged. The results are reported below, in Table 4, where “↑” indicates and increase, “↓” indicates a decrease, and “↔” indicates no change.
# Interleukin 8 (IL-8) = assay: Interleukin-8 released from Adult Dermal Human Fibroblasts (LEGENDplex Human Inflammation Panel); conditions: 4 days treatment, concentration not given (100 uM or 250 uM)
# Method: as §1
# [5] = test system: epidermal growth factor (EGF); assay: Epidermal growth factor generated by reconstructed human epidermis (LEGENDplex Human Growth Factor Panel); conditions: 250 μM, 7 days, control = 1.00
# Method: as §2
substance,measurement,setting,value
YVLLPSPK [Peptide II],Active Mitochondria (Mean Intensity Normalized to Control),[1],1.00 ± 0.19
same,Pg IL-6/μg Protein,Interleukin 6 (IL-6); first line of each peptide,265.86 ± 58.08 Pg/μg Protein
same,Pg IL-6/μg Protein,Interleukin 6 (IL-6); second line of each peptide,257.53 ± 38.82 Pg/μg Protein
same,TGFa/μg Protein,[2],1.56 ± 0.29
same,HGF/μg Protein,[3],1.28 ± 0.25
same,Holoclone count,Keratinocyte stem cells; 0.2 mM,27.60 ± 7.59
same,Holoclone count,Keratinocyte stem cells; 0.4 mM,34.30 ± 8.85
same,Autophagic Vacuoles Presence (Compared to Control),[4]; 100 μM,↑
same,Autophagic Vacuoles Presence (Compared to Control),[4]; 250 μM,↑
same,Pg IL-8/μg Protein,Interleukin 8 (IL-8); first line of each peptide,20.36 ± 5.39 Pg/μg Protein
same,Pg IL-8/μg Protein,Interleukin 8 (IL-8); second line of each peptide,35.68 ± 11.37 Pg/μg Protein
same,EGF/μg Protein,[5],1.23 ± 0.16
TWLPLPR [Peptide I],Active Mitochondria (Mean Intensity Normalized to Control),[1],1.158 ± 0.17
same,Pg IL-6/μg Protein,Interleukin 6 (IL-6); first line of each peptide,154.52 ± 32.33 Pg/μg Protein
same,Pg IL-6/μg Protein,Interleukin 6 (IL-6); second line of each peptide,126.97 ± 29.10 Pg/μg Protein
same,TGFa/μg Protein,[2],1.37 ± 0.23
same,HGF/μg Protein,[3],0.98 ± 0.20
same,Autophagic Vacuoles Presence (Compared to Control),[4]; 100 μM,↑
same,Autophagic Vacuoles Presence (Compared to Control),[4]; 250 μM,↑
same,Pg IL-8/μg Protein,Interleukin 8 (IL-8); first line of each peptide,22.72 ± 6.45 Pg/μg Protein
same,Pg IL-8/μg Protein,Interleukin 8 (IL-8); second line of each peptide,42.71 ± 11.29 Pg/μg Protein
same,EGF/μg Protein,[5],1.58 ± 0.17
KVPPLLY [Peptide III],Active Mitochondria (Mean Intensity Normalized to Control),[1],0.97 ± 0.15
same,Pg IL-6/μg Protein,Interleukin 6 (IL-6); first line of each peptide,291.73 ± 61.03 Pg/μg Protein
same,Pg IL-6/μg Protein,Interleukin 6 (IL-6); second line of each peptide,333.61 ± 38.37 Pg/μg Protein
same,TGFa/μg Protein,[2],1.93 ± 0.60
same,HGF/μg Protein,[3],1.01 ± 0.17
same,Holoclone count,Keratinocyte stem cells; 0.2 mM,27.40 ± 6.13
same,Holoclone count,Keratinocyte stem cells; 0.4 mM,36.50 ± 5.97
same,Autophagic Vacuoles Presence (Compared to Control),[4]; 100 μM,↑
same,Autophagic Vacuoles Presence (Compared to Control),[4]; 250 μM,↔
same,Pg IL-8/μg Protein,Interleukin 8 (IL-8); first line of each peptide,31.14 ± 22.26 Pg/μg Protein
same,Pg IL-8/μg Protein,Interleukin 8 (IL-8); second line of each peptide,32.58 ± 4.06 Pg/μg Protein
same,EGF/μg Protein,[5],1.79 ± 0.28

# Reference: patent publication US20250134794A1, “BIOACTIVE WALNUT PEPTIDES AND COMPOSITIONS FOR TOPICAL TREATMENT OF SKIN” (L'OREAL, priority 2023, published 2025)
